Measured values: patent US10125358B2, “Methods and compounds for increasing threonyl-tRNA synthetase activity” (UNIVERSITY OF VERMONT AND STATE AGRICULTURAL COLLEGE, priority 2012, dated 2018)
“Also recorded” adds a separate entry of the source.

T1: TARS (Homo sapiens, UniProt P26639)
T1 sequence (P26639 1-723): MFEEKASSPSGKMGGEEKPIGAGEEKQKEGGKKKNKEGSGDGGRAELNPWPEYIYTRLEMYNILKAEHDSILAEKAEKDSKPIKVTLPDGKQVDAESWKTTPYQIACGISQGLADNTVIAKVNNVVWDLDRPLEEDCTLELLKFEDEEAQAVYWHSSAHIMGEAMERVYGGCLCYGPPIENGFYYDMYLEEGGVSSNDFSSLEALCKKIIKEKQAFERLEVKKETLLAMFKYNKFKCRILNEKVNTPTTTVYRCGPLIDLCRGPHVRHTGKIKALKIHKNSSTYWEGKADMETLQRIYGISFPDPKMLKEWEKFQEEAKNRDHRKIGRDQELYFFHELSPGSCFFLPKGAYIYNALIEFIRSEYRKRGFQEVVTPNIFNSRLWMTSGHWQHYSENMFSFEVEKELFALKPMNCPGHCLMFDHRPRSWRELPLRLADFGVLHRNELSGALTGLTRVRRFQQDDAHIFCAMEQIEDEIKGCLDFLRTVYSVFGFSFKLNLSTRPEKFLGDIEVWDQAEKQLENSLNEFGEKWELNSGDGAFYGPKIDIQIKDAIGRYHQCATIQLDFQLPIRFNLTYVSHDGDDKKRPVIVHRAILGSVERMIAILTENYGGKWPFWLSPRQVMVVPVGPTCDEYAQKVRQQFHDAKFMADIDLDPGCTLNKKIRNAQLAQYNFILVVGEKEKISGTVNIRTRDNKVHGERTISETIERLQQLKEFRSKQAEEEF

B1: TARS: N-terminal His6-tagged human threonyl-tRNA synthetase expressed and purified from E. coli; SEQ ID NO:2 (protein, listed as Homo sapiens)
chain: T1 sequence (P26639 1-723)
modifications: N-terminal His6 tag

Experiments:
HUVEC = experiment: Nascent protein synthesis assay (Click-iT metabolic labeling); assay type: cell-based, human; details: HUVECs; concentrations below 100 nM
Procedure: Nascent Protein Synthesis Assay—
Nascent protein synthesis was measured using Invitrogen Click-iT® metabolic labeling reagents [Dieterich, D. C., et al., Nat Protoc 2, 532-40 (2007)]. HUVEC cultures were pre-incubated in methionine-free Dulbecco's Modified Eagle Medium (D-MEM) high glucose (Invitrogen, Life Technologies, Grand Island, N.Y.) supplemented with 10% dialyzed fetal bovine serum (Invitrogen) containing the control or test compounds. Cycloheximide (50 μM) was used as a positive control. After 45 minutes, 25 μM Click-iT® AHA (L-azidohomoalanine) (Invitrogen) was added and cultures were incubated for 3 h. Cells were lysed with 1% SDS in 50 mM Tris-HCl with protease and phosphatase inhibitors: 1 mM […], 20 […], and 4 […]. Extracts were sonicated and protein concentration was determined by Bradford assay. Protein samples were labeled with biotin alkyne (PEG4 carboxamide-propargyl biotin) (Invitrogen) using the Click-iT® Protein Reaction Buffer Kit (Invitrogen) according to manufacturer's instructions. Equal concentrations of protein were run on a 10% SDS-PAGE and transferred to nitrocellulose membrane, incubated with streptavidin-HRP reagent (Pierce Thermo Scientific, Rockford, Ill.) followed by reaction with ECL reagent (Pierce) and exposed on film.

HUVECs [1] = experiment: Western blot for unfolded protein response (phospho-eIF2α) and apoptosis (cleaved caspase-3); assay type: cell-based, human; details: HUVECs in full serum media
Procedure: After treatments, cells were harvested into sample buffer containing: 0.2 M Tris-HCL, 4% SDS, 4% β-mercaptoethanol, 40% glycerol, 4 μM pyronin Y. Extracts were sheared through a 24-gauge syringe. Samples were separated by 10% SDS-PAGE and transferred to nitrocellulose membrane and probed with specific antibody as described (Lounsbury, Beddow et al. 1994). Primary antibodies are as follows: Rabbit monoclonal anti-P-eIF2α (1:1000; Cell Signaling Technology, Danvers, Mass.), rabbit monoclonal anti-Cleaved Caspase-3 (1:1000; Cell Signaling Technology, Danvers, Mass.), rabbit polyclonal anti-TARS (1:500; Santa Cruz Biotechnology, Santa Cruz, Calif.). Loading control antibodies were rabbit monoclonal anti-β-actin and anti-β-tubulin (1:1000; Cell Signaling Technology, Danvers, Mass.). Secondary antibodies were HRP-goat-anti-mouse and HRP-goat-anti-rabbit (1:5,000; Jackson Laboratories, Bar Harbor, Me.).

HUVECs [2] = experiment: Cell viability by Trypan Blue exclusion; assay type: cell-based, human; details: concentrations below 100 nM
Procedure: Cell viability was measured by counting cells in a hemacytometer with Trypan Blue exclusion (Sigma-Aldrich, St. Louis, Mo.) according to manufacturer's instructions. Measurements were normalized to untreated cells.

TARS = molecular target: T1, TARS; details: calculated; see Williams, Mirando et al. 2013; cited from earlier work
tRNAThr = experiment: Steady state aminoacylation assay; assay type: biochemical, E. coli or human; details: purified recombinant protein
Procedure: Steady State Aminoacylation Assay—
The aminoacylation activities of the TARS constructs were determined using modifications to established procedures (Francklyn et al 2008). Briefly, reaction mixtures consisted of 20 mM Tris-HCl pH 8.0, 100 mM KCl, 10 mM MgCl2, 1 mM dithiothreitol, 2 mM ATP, 2.5 U pyrophosphatase (Roche), 80 μM threonine, 20 μM [14C]-threonine, and 5 μM of E. coli or human tRNAThr. Reactions were initiated with the addition of 0.25-0.75 μM TARS and run at 37° C. Aliquots were taken at varying time points and spotted onto Whatmann 3MM paper filters pre-soaked in 5% trichloroacetic acid (TCA). Upon completion, the filters were washed 3 times in excess TCA, once in 95% ethanol, and dried under a heating lamp. The formation of Thr-tRNAThr was detected by scintillation counter and the activity determined by linear regression of threonyl-tRNAThr formed per active site per unit time.

[3] = test system: von Hippel Lindau protein (VHL); experiment: Co-immunoprecipitation of TARS and VHL from transfected HEK293 cells; assay type: binding, human; details: biotinylated TARS construct precipitated with streptavidin beads, HEK cells
von Hippel Lindau protein (VHL), sequence (P40337 54-213 limits assumed): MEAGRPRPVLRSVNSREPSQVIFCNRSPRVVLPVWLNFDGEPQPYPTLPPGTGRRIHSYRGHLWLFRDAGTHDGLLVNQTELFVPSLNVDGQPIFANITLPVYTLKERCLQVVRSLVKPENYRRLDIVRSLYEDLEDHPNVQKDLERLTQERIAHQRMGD
Procedure: Plasmids expressing biotinylatable TARS (pTARS) and myc-tagged VHL (pVHL) were transfected into HEK293 cells, and then extracts were prepared. Biotin-TARS was precipitated using streptavidin-coupled beads. Myc-VHL was precipitated using anti-myc antibodies. Precipitates were separated by SDS-PAGE, transferred and blots probed with anti-TARS antibody or anti-myc (VHL) antibody.

HUVECs [4] = experiment: VEGF secretion into culture media (ELISA); assay type: cell-based, human; details: purified recombinant TARS added to HUVEC media for 24 h
Procedure: ELISA and Lactate Dehydrogenase Assays—
Culture media supernatants were tested for levels of secreted TARS protein using the Threonyl tRNA Synthetase (TARS) ELISA Kit (USCN Life Science, Wuhan, Hubei, PRC) according to manufacturer's instructions. Cell membrane integrity was confirmed using the lactate dehydrogenase assay CytoTox-ONE™ Homogeneous Membrane Integrity Assay (Promega, Madison, Wis.) according to manufacturer's instructions and reported as percent cytotoxicity relative to a lysis control. Levels of secreted VEGF were measured using the Human VEGF ELISA kit (Thermo Scientific) per manufacturer's instructions.

| Molecule | nascent protein synthesis (HUVEC) | stimulation of unfolded protein response (phospho-eIF2α) and apoptosis (cleaved caspase-3) (HUVECs [1]) | cell viability (HUVECs [2]) | Ki (TARS) [nM] | aminoacylation activity (tRNAThr) | co-precipitation of VHL [3] | secretion of VEGF (HUVECs [4]) |
| --- | --- | --- | --- | --- | --- | --- | --- |
| C[C@@H]1C[C@H](C)C[C@H](C)[C@@H](O)CC(=O)O[C@H]([C@@H]2CC[C@H]2C(=O)O)C/C=C/C=C(/C#N)[C@H](O)[C@@H](C)C1 [BC194] | unaffected; also recorded: lack of effect | high concentrations of BC194 are required | unaffected; also recorded: lack of effect | 4.1 |  |  |  |
| B1 |  |  |  |  | exhibits aminoacyl synthetase activity | the VHL protein is co-precipitated | did not induce secretion of VEGF; also recorded: does not induce VEGF secretion |
